Data as given in US4473554A, “Bestatin-related compounds as immunopotentiator” (Zaidan Hojin Biseibutsu Kagaku Kenkyu Kai, priority 1982, dated 1984).
pIC50: −log10 of the molar value. Where two headings read alike, the source gives them in different places.

Assays:
[1] = biological target: T1, aminopeptidase B (Rattus norvegicus, UniProt O09175); assay: aminopeptidase B-inhibiting activity (modified Hopsu method, arginine β-naphthylamide substrate); format: biochemical; details: 37° C., pH 7.0, 30 minutes
T1 sequence (O09175 1-650): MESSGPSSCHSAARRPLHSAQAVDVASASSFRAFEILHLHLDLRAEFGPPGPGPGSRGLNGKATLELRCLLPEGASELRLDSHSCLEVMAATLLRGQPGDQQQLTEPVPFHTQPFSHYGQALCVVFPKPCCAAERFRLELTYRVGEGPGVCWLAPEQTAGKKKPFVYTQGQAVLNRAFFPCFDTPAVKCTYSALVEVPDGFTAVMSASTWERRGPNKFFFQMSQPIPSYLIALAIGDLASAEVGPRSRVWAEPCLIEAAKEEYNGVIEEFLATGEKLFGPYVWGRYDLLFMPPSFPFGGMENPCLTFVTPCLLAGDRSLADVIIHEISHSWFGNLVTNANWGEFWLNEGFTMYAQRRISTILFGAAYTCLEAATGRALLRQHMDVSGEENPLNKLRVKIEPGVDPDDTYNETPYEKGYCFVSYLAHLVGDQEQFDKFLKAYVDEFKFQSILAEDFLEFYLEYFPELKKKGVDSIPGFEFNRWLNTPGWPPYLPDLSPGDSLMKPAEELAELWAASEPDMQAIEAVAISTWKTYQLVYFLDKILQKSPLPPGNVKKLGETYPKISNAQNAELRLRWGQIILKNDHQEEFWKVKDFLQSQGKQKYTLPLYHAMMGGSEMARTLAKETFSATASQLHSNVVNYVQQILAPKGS
Protocol: The aminopeptidase B-inhibiting activity was determined according to a modification of the method of V. K. Hopsu et al. described in the "Archives of Biochemistry and Biophysics" Vol. 114, 557 (1966). Thus, a mixture of 0.8 ml of 0.1 mM of (S)-arginine β-naphthylamide and 1.0 ml of 0.1M Tris-hydrochloride buffer (pH 7.0) was admixed with 0.7 ml of 0.1M Tris-hydrochloride buffer (pH 7.0) containing the test compound and then heated at 37° C. for 3 minutes. […] After the reaction at 37° C. for 30 minutes, the reaction solution was admixed with 0.6 ml of 0.1M acetate buffer (pH 4.2) containing 1.0 mg/ml of diazonium salt of o-aminoazotoluene (Garnet GBC) and 1.0% of a surfactant "Tween" 20 (a registered trademark) to stop the enzymatic reaction and then allowed to stand at ambient temperature for 15 minutes. After this, absorbance (a) at 525 nm of the reaction solution was measured by spectrophotometer. For the control, the above procedure was repeated without the test compound and the adsorbence (b) was measured. Percentages for inhibition to aminopeptidase B were calculated according to the equation: [formula] Inhibition percentages at various concentrations of the test compound were measured, and from the values of inhibition percentages measured 50% Inhibition Concentration (IC50) was evaluated.

[2] = test system: D.T.H. response in mice immunized with SRBC as antigen; assay: D.T.H. footpad test in mice immunized with SRBC, Examples 3-6 (dosages per mouse); format: in vivo; details: for enhancement of D.T.H. response / cell-mediated immunity: oral, 10 mcg/mouse or 1 mcg/mouse
Protocol: The effect of (2S,3R)-AHPA on cell-mediated immunity was tested in the same way in Example 2, namely according to the D.T.H. technique using mice immunized with sheep red blood cell as antigen. Thus, a suspension of 10^8 sheep red blood cells in 0.05 ml of physiological saline were subcutaneously injected at the time of immunization into the right hind footpad of each CDF1 -mouse under test (female, 8 weeks-aged, 5 mice in each group) to establish D.T.H. […] The degree of swelling was evaluated. By way of comparison, bestatin was tested in the same way as above. […] The effect of (2S,3R)-AHPA on the D.T.H. response was estimated in the same manner as in the above procedure (A) of Example 3 by orally administering 1 mcg/mouse, 0.1 mcg/mouse or 0.01 mcg/mouse of (2S,3R)-AHPA to each mouse under test. […] The effect of the mode of administering (2S,3R)-AHPA on the D.T.H. response was estimated in the same manner as in the procedure (A) of Example 3, except that the test compound (as aqueous solution) was injected intraperitoneally in stead of being given orally.

[3] = solubility in water
[4] = test system: ICR-strain mice; assay: acute toxicity, intraperitoneal, ICR-strain mice; format: in vivo, mouse; details: dosage of 100 mg/kg
From the text: In order to estimate the acute toxicity of the compound of the formula (VIII) or (IIId), some of the test compound was intraperitoneally given to ICR-strain mice (in groups each consisting of 6 mice, male, 5 weeks-aged, average body weight 20 g.), when all the tested mice tolerated intraperitoneal administration of (2S,3R)-APHA; (2S)-2-N-[(2'S,3'R)-3'-amino-2'-hydroxy-4'-phenyl-butanoyl]amino-4-methyl- pentanol; (2S)-2-N-[(2'S,3'R)-3'-amino-2'-hydroxy-4'-phenylbutanoyl-(S)-leucyl]amino-4-methyl-pentanol; (2S,3R)-3-amino-2-hydroxy-4-phenylbutanoyl-(S)-leucyl-(S)-leucine; (2S,3R)-3-amino-2-hydroxy-4-phenyl-butanoyl-(S)-leucyl-(S)-arginine; (2S,3R)-3-amino-2-hydroxy-4-phenylbutanoyl-(S)-leucyl-(S)-asparagine; (2R,3R)-3-amino-2-hydroxy-4-phenylbutanoyl-(S)-leucyl-(R)-asparagine; and (2S,3R)-3-amino-2-hydroxy-4-phenylbutanoyl-(S)-leucyl-(R)-arginine at a dosage of 100 mg/kg.

[5] = test system: D.T.H. response in mice immunized with sheep red blood cell (SRBC); assay: Delayed Type Hypersensitivity (D.T.H.) footpad test in mice immunized with SRBC, Example 2; format: in vivo, mouse; details: CDF1 mice, control = 100
Protocol: This Example describes the tests for evaluation of the immunopotentiating activity of the new compound of this invention.
A suspension of 10^8 sheep red blood cells in 0.05 ml of physiological saline was subcutaneously injected at the time of immunization into the right hind footpad of each CDF1 -mouse under test (female, 8 weeks-aged, 5 mice in each group) to establish D.T.H. Simultaneously to the immunization, […] prepared by dissolving the test compound in physiological saline and then filtering the solution by a micropore filter (pore diameter: 0.22 micrometers). Four days later, 10^8 SRBC were subcutaneously injected into the left […] footpad of each test mouse for elicitation of the D.T.H. response. 24 Hours after the elicitating injection, the increased thickness of the left hind footpad was measured with calipers to estimate the degree of swelling in the footpad. The swelling degree is expressed in term of the values calculated by the equation: [formula] The degree of swelling serves to evaluate the degree of cell-mediated immunity involved. For comparison, a suspension of bestatin dispersed in water was tested in the same way as above.

[6] = oral 0.05 mg/kg at immunization
[7] = Table 7, oral 1 mcg/mouse, control = 100
[8] = Table 7, oral 10 mcg/mouse, control = 100

## CC(C)C[C@H](NC(=O)C(O)[C@H](N)Cc1ccccc1)C(=O)N[C@H](Cc1ccccc1)[C@H](O)C(=O)O (stereo partly drawn) [Compound No. 8, (3R)-N-[(2'S,3'R)-3'-amino-2'-hydroxy-4'-phenylbutanoyl-(S)-leucyl]amino-(2S)-2-hydroxy-4-phenylbutanoic acid]
[1]
  IC50: 53 µg/mL

## N[C@H](Cc1ccc(O)cc1)[C@H](O)C(=O)O [(2S,3R)-p-OH-AHPA, (2S,3R)-3-amino-2-hydroxy-4-p-hydroxyphenylbutanoic acid]
[2]; Table 8, oral 1 mcg/mouse
  Increase in thickness of footpad (+ S.D.): 9.7 ± 0.54 × 0.1 mm
[2]; Table 8, oral 1 mcg/mouse, control = 100
  Degree of swelling: 114%
[2]; Table 8, oral 10 mcg/mouse
  Increase in thickness of footpad (+ S.D.): 11.0 ± 1.75 × 0.1 mm
[2]; Table 8, oral 10 mcg/mouse, control = 100
  Degree of swelling: 129%
[2]
  enhancement of D.T.H. response / cell-mediated immunity: enhances likewise the cell-mediatedimmunity
[3]
  solubility in water: soluble in water

## NC(=O)[C@H](O)[C@H](N)Cc1ccccc1 [(2R,3R)-AHPA amide]
[3]
  solubility in water: soluble in water

## CC(C)C[C@H](NC(=O)[C@@H](O)[C@H](N)Cc1ccccc1)C(=O)N[C@@H](CC(N)=O)C(=O)O
[4]
  acute toxicity: tolerance of intraperitoneal administration: tolerated

## CC(=O)N[C@H](Cc1ccccc1)[C@H](O)C(=O)N[C@H](CO)CC(C)C [Compound No. 3, (2S)-2-N-[(2'S,3'R)-3'-N-acetylamino-2'-hydroxy-4'-phenylbutanoyl]amino-4-methyl-pentanol]
[3]
  solubility in water: soluble in water
[1]
  IC50: 48.9 µg/mL
[5]; [6]
  Degree of swelling: 124%
[5]; oral 0.5 mg/kg at immunization
  Degree of swelling: 131%

## CC(C)C[C@@H](CO)NC(=O)[C@H](CC(C)C)NC(=O)[C@@H](O)[C@H](N)Cc1ccccc1
[4]
  acute toxicity: tolerance of intraperitoneal administration: tolerated

## NC(=O)[C@@H](O)[C@H](N)Cc1ccccc1 [(2S,3R)-AHPA amide]
[2]; Table 7, oral 1 mcg/mouse
  Increase in thickness of footpad (± S.D.): 9.8 ± 0.82 × 0.1 mm
[2]; [7]
  Degree of swelling: 111%
[2]; Table 7, oral 10 mcg/mouse
  Increase in thickness of footpad (± S.D.): 11.5 ± 1.20 × 0.1 mm
[2]; [8]
  Degree of swelling: 131%

## CC(C)C[C@H](NC(=O)[C@H](CC(C)C)NC(=O)[C@@H](O)[C@H](N)Cc1ccccc1)C(=O)O
[4]
  acute toxicity: tolerance of intraperitoneal administration: tolerated

## N[C@@H](Cc1ccccc1)[C@H](O)C(=O)O [(2S,3S)-AHPA]
[2]; Table 6, oral 1 mcg/mouse
  Degree of swelling: 111%
[2]; Table 6, oral 10 mcg/mouse
  Degree of swelling: 135%
  Increased in thickness of footpad (± S.D.): 11.9 ± 1.36 × 0.1 mm

## COC(=O)[C@@H](O)[C@H](N)Cc1ccccc1.Cl [(2S,3R)-AHPA methylester hydrochloride]
[2]; Table 7, oral 1 mcg/mouse
  Increase in thickness of footpad (± S.D.): 11.7 ± 1.29 × 0.1 mm
[2]; [7]
  Degree of swelling: 134%
[2]; Table 7, oral 10 mcg/mouse
  Increase in thickness of footpad (± S.D.): 11.5 ± 1.12 × 0.1 mm
[2]; [8]
  Degree of swelling: 132%
[2]
  enhancement of D.T.H. response / cell-mediated immunity: active substantially as much as the free acid form of (2S,3R)-AHPA

## N[C@H](Cc1ccccc1)[C@@H](O)C(=O)O [(2R,3R)-AHPA]
[2]; Table 6, oral 1 mcg/mouse
  Degree of swelling: 135%
  Increased in thickness of footpad (± S.D.): 11.9 ± 0.74 × 0.1 mm
[2]; Table 6, oral 10 mcg/mouse
  Increased in thickness of footpad (± S.D.): 9.6 ± 0.65 × 0.1 mm
[3]
  solubility in water: soluble in water

## CC(C)C[C@H](NC(=O)[C@@H](O)[C@H](N)Cc1ccccc1)C(=O)N[C@H](CC(C)C)C(=O)O [Compound No. 7, (2S,3R)-3-amino-2-hydroxy-4-phenylbutanoyl-(S)-leucyl-(R)-leucine]
[1]
  IC50: 15 µg/mL
[5]; oral 0.5 mg/kg at immunization
  Degree of swelling: 120%

## CC(C)C[C@@H](CO)NC(=O)[C@@H](O)[C@H](N)Cc1ccccc1 [Compound No. 2, (2S)-2-N-[(2'S,3'R)-3'-amino-2'-hydroxy-4'-phenylbutanoyl]amino-4-methyl-pentanol]
[1]
  IC50: 0.65 µg/mL
[5]; [6]
  Degree of swelling: 106%
[5]; oral 0.5 mg/kg at immunization
  Degree of swelling: 126%
[4]
  acute toxicity: tolerance of intraperitoneal administration: tolerated

## CC(C)C[C@H](NC(=O)[C@@H](O)[C@H](N)Cc1ccccc1)C(=O)N[C@@H](CCCNC(=N)N)C(=O)O
[4]
  acute toxicity: tolerance of intraperitoneal administration: tolerated

## Cl.N[C@H](Cc1ccccc1)[C@H](O)CO [Compound No. 1, (2S,3R)-3-amino-2-hydroxy-4-phenyl-1-butanol-hydrochloride]
[3]
  solubility in water: soluble in water
[1]; read-out: IC50
  pIC50: < 3.64
[5]; [6]
  Degree of swelling: 123%
[5]; oral 0.5 mg/kg at immunization
  Degree of swelling: 129%

## CC(C)C[C@@H](CO)NC(=O)[C@H](CC(C)C)NC(=O)C(O)[C@H](N)Cc1ccccc1 (stereo partly drawn) [Compound No. 4, (2S)-2-N-[(2'S,3'R)-3'-amino-2'-hydroxy-4'-phenylbutanoyl-(S)-leucyl]amino-4-methyl-pentanol]
[1]
  IC50: 5.4 µg/mL
[5]; oral 0.5 mg/kg at immunization
  Degree of swelling: 103%

## N[C@@H](Cc1ccccc1)[C@@H](O)C(=O)O [(2R,3S)-AHPA]
[2]; Table 6, oral 1 mcg/mouse
  Degree of swelling: 133%
  Increased in thickness of footpad (± S.D.): 11.7 ± 1.15 × 0.1 mm
[2]; Table 6, oral 10 mcg/mouse
  Degree of swelling: 120%
  Increased in thickness of footpad (± S.D.): 10.6 ± 0.97 × 0.1 mm
